# Results from patent US10709707B2, “Methods of treating ocular conditions” (Oyster Point Pharma, Inc., priority 2016, dated 2020).
# “And” between values parts separate entries of the source, which are not always exact repeats. Equal entries are not always repeated. “Also recorded” adds a separate entry of the source. Where two headings read alike, the source gives them in different places.
# Key:
# [1] = 13-week repeat-dose oral toxicity in rats; format: in vivo, rat
# Method: Compound 1 was given to rats once daily for at least 13 weeks via oral gavage at doses of 30, 100, or 300 mg/kg/day. Two of 15 females receiving 300 mg/kg/day died. Clinical signs in males and females in this high-dose group included; reduced food consumption, anogenital staining, lacrimation, chromodacryorrhea, and tremors. Laboratory results included marginally lower RBC mass that correlated with elevated reticulocyte counts with recovery; elevated liver enzymes and bilirubin throughout the dosing period, with evidence of resolution during recovery urinary changes, including increased urine volume, elevated urinary protein, and higher bilirubin and urobilinogen, with resolution during recovery. Rats receiving doses of 100 mg/kg/day and higher had clinical signs that included excessive salivation, tan brown muzzle, closed or partially closed eyelids, and reduced body weight. Laboratory results included elevated WBC (lymphocytes and neutrophils), with recovery; elevated bilirubin; and a slight decrease in total serum protein (globulins and albumin). […] At doses ≥100 mg/kg/day, microscopic findings of centrilobular hepatocellular hypertrophy, medullary adrenal gland cell hypertrophy, mucosal epithelial cell hyperplasia of the small intestine, and increased extramedullary hematopoiesis and hemosiderin deposits in the red pulp of the spleen were observed. […] Accordingly, the NOAEL was considered to be 30 mg/kg/day. […] AUC and Cmax increased between Day 1 and Day 29.
# human α4β2 = human α4β2 (Homo sapiens, UniProt P17787+P43681); experiment: Receptor binding α4β2, recombinant human receptors in SH-EP1 cells; conditions: [3H]-S-nicotine, human α4β2 expressed in SH-EP1 cells
# human α4β2, sequence (P43681 29-627 limits assumed): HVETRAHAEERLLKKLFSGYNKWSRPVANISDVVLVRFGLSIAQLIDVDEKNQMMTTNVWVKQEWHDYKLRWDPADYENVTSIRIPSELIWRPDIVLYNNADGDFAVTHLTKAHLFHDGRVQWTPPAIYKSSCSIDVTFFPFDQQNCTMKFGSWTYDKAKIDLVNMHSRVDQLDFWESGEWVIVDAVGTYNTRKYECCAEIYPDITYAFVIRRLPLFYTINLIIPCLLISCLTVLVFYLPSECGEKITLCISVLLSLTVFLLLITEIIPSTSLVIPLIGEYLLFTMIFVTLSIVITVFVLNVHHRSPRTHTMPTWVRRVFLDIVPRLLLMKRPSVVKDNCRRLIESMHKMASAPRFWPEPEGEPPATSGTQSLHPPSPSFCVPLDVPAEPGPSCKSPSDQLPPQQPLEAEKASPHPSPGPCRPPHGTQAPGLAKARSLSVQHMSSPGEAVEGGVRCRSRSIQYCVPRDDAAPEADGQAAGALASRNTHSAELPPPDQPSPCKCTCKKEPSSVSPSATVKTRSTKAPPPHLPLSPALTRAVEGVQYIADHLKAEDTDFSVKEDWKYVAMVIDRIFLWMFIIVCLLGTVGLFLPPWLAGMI
# human α4β2, sequence (P17787 26-502): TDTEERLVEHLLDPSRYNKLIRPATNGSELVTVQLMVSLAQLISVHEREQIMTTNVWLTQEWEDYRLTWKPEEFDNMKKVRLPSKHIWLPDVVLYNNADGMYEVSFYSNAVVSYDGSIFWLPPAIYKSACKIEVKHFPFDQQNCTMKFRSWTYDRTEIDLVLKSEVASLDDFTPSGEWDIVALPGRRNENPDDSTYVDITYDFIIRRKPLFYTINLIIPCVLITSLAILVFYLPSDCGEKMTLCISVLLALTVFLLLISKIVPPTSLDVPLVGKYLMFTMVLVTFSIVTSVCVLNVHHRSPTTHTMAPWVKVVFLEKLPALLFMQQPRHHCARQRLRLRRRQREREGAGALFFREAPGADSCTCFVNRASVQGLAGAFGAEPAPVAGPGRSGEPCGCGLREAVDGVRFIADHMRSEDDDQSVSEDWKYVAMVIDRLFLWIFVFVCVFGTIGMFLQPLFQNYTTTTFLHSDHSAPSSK
# muscle receptor (α1β1δγ) = target: T1, muscle receptor (α1β1δγ) (Homo sapiens, UniProt P02708+P07510+Q07001); experiment: Receptor function muscle receptor, TE671 cells; format: cell-based
# T1 construct: endogenous in cells; host or cells: TE671 (TE-671) cells / membranes (per the earlier reading)
# T1 sequence (P11230 24-501): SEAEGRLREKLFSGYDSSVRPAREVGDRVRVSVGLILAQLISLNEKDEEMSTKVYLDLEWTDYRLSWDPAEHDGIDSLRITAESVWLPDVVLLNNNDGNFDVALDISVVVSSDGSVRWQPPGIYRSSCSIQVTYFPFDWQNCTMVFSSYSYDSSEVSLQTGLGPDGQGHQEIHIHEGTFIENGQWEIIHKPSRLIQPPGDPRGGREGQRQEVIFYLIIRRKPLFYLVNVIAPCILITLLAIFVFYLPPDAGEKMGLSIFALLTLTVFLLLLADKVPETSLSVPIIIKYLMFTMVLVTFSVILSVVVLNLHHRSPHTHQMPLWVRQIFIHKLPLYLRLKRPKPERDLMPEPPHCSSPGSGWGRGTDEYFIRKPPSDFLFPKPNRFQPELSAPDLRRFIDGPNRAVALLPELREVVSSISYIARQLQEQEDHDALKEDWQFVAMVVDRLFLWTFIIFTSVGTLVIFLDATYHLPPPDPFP
# T1 sequence (P02708 21-457): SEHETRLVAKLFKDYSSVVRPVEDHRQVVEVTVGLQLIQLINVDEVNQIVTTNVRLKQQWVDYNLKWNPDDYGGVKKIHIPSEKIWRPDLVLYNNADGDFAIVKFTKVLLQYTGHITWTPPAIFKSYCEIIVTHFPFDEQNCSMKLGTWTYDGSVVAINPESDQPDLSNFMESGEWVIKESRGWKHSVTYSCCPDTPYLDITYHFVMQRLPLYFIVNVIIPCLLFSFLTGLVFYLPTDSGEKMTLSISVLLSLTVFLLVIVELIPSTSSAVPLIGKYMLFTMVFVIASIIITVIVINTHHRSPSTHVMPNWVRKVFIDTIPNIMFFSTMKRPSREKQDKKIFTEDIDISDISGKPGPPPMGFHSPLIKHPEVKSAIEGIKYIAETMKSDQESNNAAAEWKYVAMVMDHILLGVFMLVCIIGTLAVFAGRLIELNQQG
# T1 sequence (Q07001 22-517): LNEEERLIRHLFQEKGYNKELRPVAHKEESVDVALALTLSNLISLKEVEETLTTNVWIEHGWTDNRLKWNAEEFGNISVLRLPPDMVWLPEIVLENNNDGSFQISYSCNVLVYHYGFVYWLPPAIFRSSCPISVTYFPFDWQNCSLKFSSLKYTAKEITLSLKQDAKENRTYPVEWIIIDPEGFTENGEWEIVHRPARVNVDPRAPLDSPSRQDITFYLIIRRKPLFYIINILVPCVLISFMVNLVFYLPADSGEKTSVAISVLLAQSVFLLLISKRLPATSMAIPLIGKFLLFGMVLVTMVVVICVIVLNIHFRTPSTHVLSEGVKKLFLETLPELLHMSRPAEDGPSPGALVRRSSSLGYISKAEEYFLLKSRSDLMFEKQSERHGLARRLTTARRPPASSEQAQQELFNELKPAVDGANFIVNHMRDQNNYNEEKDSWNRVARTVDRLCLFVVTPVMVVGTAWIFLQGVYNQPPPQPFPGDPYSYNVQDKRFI
# T1 sequence (P07510 23-517): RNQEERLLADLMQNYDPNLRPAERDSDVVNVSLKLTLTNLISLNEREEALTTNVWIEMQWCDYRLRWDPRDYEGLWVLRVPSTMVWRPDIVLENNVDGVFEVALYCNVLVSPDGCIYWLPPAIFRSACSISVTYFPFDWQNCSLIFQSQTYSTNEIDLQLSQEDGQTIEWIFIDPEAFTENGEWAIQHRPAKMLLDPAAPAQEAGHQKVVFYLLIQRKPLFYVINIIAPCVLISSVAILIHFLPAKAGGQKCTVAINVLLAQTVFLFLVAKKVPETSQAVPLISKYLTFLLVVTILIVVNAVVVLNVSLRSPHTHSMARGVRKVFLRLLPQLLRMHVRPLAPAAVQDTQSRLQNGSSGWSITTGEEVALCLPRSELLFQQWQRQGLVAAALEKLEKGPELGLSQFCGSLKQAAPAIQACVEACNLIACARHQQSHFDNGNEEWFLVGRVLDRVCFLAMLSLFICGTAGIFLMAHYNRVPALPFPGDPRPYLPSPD
# [2] = tested on: pentylenetetrazole convulsions; experiment: CNS safety pharmacology, convulsant properties with subconvulsant pentylenetetrazole; format: in vivo, Rat: Sprague-Dawley
# [3] = stability in human liver microsomes, heat-treated human liver microsomes and human S9 fractions; format: in vitro ADME; conditions: all test systems
# From the text: In human and monkey, the primary route of metabolism was through oxidation of the pyrrolidine ring (metabolite M02) before further metabolism via dioxidation to M1 or M3. In humans, parent accounted for 37% of extracellular radioactivity, M02 was 13.9%.M1 was 4.1% and M3 was 1.1%. In monkey, parent accounted for 14.2%, M02 was 5.0%, M1 was 5.8% and M3 was 29.4%. In the rat, the primary metabolite is an N-oxide-pyrimidine derivative (M9); it accounted for 71.9% of extracellular radioactivity while parent represented only 1.4%.
# pKa = format: physicochemical
# hERG channel = hERG channel (Homo sapiens, UniProt Q12809); experiment: Cardiovascular safety, hERG channel in vitro; format: cell-based
# hERG channel, sequence (Q12809 whole entry): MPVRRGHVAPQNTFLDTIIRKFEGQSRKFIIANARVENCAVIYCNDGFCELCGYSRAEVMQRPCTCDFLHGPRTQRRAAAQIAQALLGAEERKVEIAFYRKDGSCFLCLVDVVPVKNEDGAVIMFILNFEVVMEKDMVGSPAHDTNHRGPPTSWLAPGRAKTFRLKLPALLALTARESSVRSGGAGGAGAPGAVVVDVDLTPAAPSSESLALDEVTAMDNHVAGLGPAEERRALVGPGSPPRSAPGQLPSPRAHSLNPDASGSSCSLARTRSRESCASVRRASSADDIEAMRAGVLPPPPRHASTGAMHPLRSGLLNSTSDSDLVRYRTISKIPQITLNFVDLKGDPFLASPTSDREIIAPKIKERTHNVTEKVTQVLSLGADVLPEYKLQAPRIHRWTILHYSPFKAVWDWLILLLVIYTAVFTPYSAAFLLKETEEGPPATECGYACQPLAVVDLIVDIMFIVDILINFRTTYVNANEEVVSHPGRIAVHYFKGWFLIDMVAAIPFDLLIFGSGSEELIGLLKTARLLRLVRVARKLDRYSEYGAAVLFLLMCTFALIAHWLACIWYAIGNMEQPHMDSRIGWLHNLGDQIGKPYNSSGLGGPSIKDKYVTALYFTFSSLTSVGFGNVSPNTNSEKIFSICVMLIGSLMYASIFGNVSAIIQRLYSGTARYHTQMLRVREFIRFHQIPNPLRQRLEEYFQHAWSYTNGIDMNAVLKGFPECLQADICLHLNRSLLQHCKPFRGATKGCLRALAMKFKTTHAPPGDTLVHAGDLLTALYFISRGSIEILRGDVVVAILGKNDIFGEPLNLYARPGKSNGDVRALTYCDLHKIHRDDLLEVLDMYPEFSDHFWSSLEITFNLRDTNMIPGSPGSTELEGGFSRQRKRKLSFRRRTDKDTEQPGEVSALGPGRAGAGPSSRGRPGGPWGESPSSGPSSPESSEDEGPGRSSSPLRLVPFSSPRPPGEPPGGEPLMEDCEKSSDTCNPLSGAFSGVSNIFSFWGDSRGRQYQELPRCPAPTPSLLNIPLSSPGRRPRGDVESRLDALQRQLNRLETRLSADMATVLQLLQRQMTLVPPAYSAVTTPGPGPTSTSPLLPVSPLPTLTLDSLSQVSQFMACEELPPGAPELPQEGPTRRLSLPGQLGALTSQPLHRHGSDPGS
# [4] = Single dose pharmacokinetics studies; format: in vivo; conditions: Swiss (mouse), Sprague-Dawley (rat), cynomolgus (monkey), plasma, oral, rat and monkey, read-out: time to reach maximum concentration (Tmax)
# Method: (§1) In a monkey study, [^14C]-Compound 1 was given at 10 mg/kg orally or 5 mg/kg by iv infusion. Oral bioavailability in this study was about 30%.
# [5] = target: T2, α7 nicotinic acetylcholine receptor (Rattus norvegicus, UniProt Q05941); experiment: Receptor binding α7, inhibition of [3H]-MLA binding, rat brain membranes
# T2 construct: from tissue; host or cells: rat brain membranes (per the earlier reading)
# T2 sequence (Q05941 23-502): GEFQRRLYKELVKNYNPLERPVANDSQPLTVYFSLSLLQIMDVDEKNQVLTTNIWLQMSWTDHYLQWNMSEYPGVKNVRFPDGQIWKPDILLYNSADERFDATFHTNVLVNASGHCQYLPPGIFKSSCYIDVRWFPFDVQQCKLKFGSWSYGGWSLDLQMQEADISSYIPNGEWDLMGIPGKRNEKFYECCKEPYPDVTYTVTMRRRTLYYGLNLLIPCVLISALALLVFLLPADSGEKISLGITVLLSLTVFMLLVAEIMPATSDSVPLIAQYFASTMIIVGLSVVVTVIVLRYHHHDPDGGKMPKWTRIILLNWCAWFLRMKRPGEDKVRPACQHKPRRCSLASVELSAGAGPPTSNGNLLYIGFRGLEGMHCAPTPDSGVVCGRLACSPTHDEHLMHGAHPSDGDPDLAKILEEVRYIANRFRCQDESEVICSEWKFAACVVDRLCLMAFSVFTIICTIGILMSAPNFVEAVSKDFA
# [6] = Single dose pharmacokinetics, monkey; format: in vivo, Cyno monkey; conditions: plasma; for AUC(0-t): t = 168 h, read-out: AUC0-1; for AUC(0-inf): read-out: AUCinf, unchanged parent
# Method: as §1
# a6/a3b2b3 = a6/a3b2b3 (Homo sapiens, UniProt P17787+P32297+Q15825); experiment: Receptor binding a6/a3b2b3
# [7] = Clinical studies with oral formulation; format: in vivo
# From the text: The drug substance for Compound 1 nasal spray was previously used in clinical trials as an oral formulation. […] Compound 1 is re-formulated as a nasal spray.
# mouse lymphoma cells = experiment: micronucleus test in mouse lymphoma cells; format: cell-based; conditions: in vitro
# From the text: (§2) Compound 1 was negative for mutagenicity in both in vitro bioassays—including an Ames test, a micronucleus test in mouse lymphoma cells, and a chromosome aberration assay using cultured human peripheral blood lymphocytes—and an in vivo rat bone marrow micronucleus test.
# rat bone marrow = experiment: in vivo rat bone marrow micronucleus test
# From the text: as §2
# respiratory parameters = experiment: Respiratory safety pharmacology; format: in vivo, Rat: Sprague-Dawley
# [8] = Cardiovascular safety, telemetry in conscious dogs po; format: in vivo, Dog: Beagle; conditions: beagle, dog, in vivo; 5, 10, 20 mg/kg po; read-out: terminal half-life (TK)
# [9] = tested on: blood pressure, heart rate, ECG; experiment: as above; format: in vivo, Dog: Beagle
# [10] = female, rat, in vivo, po, 30 mg/kg/day
# [11] = male, rat, in vivo, po, 30 mg/kg/day
# [12] = cynomolgus monkey, Cyno monkey, 5 mg/kg [14C]-Compound 1, 20-minute intravenous
# [13] = cynomolgus monkey, Cyno monkey, 10 mg/kg [14C]-Compound 1, oral
# [14] = 2.5, 5, 10 mg/kg po once daily for 5 days
compound,measurement,setting,value
"C(=C\[C@H]1CCNC1)/c1cncnc1 [Compound 1, (R)-5-((E)-2-pyrrolidin-3-ylvinyl)pyrimidine]",NOAEL at 13 weeks,"[1]; both sexes, in vivo, 13-week rat study, oral, as summarised",30 mg/kg
same,Tmax,"[1]; both sexes, rat, in vivo, po",0.5 to 2 h
same,NOAEL at 13 weeks,"[1]; both sexes, rat, in vivo, rats, oral gavage once daily, 13 weeks",30 mg/kg/day
same,AUC,[1]; [10],10200 ng·h/mL
same,Cmax,[1]; [10],3150 ng/mL
same,deaths,"[1]; females, 300 mg/kg/day",Two of 15
same,incidence of minimal hepatocellular hypertrophy,"[1]; male, rat, in vivo, 30 mg/kg/day, 13 weeks",7 of 10
same,AUC,[1]; [11],12100 ng·h/mL
same,Cmax,[1]; [11],2570 ng/mL
same,Ki,human α4β2,0.017 µM
same,EC50,muscle receptor (α1β1δγ),15 µM
same,Emax,"muscle receptor (α1β1δγ); TE-671, Human muscle-type, Ca++ Flux",42%
same,Emax,"muscle receptor (α1β1δγ); TE-671, Human muscle-type, Rb+ Flux, single point",12%
same,Emax,"muscle receptor (α1β1δγ); TE-671, TE671 cells",42%
same,convulsions in combination with subconvulsant pentylenetetrazole,"[2]; 10, 30, 100 mg/kg po",no noteworthy changes; also recorded: not did not induce convulsions. D-
same,"NOEL, convulsant properties",[2]; po with pentylenetetrazole,The NOEL was 100 mg/kg.
same,metabolic stability,[3],relatively stable
same,pKa,pKa; read-out: pKa(1),1.73
same,pKa,pKa; read-out: pKa(2),10.3
same,IC50,hERG channel,285 µM
same,Tmax,[4],0.167 to 2.25 h
same,Ki,"[5]; Rat a7, assay and tissue type not given",3.5 µM
same,Ki,"[5]; [3H]-MLA, rat brain hippocampal membranes",5.5 µM and 5.53 µM
same,Tmax,[6]; [12],0.333 h
same,AUC(0-t),[6]; [12],1530 ng·h/mL
same,half-life,"[6]; cynomolgus monkey, Cyno monkey, 5 mg/kg [14C]-Compound 1, 20-minute intravenous, read-out: t1/2 (converted)",2.1 h
same,Tmax,[6]; [13],2.25 h
same,AUC(0-t),[6]; [13],942 ng·h/mL
same,bioavailability,"[6]; cynomolgus monkey, Cyno monkey, 10 mg/kg [14C]-Compound 1, oral, read-out: F (oral bioavailability)",31.1%
same,half-life,"[6]; cynomolgus monkey, Cyno monkey, 10 mg/kg [14C]-Compound 1, oral, read-out: t1/2 (converted)",1.9 h
same,AUC(0-inf),"[6]; cynomolgus, 5 mg/kg iv infusion",1530 ng·h/mL
same,Cmax,"[6]; cynomolgus, Cyno monkey, 5 mg/kg [14C]-Compound 1, 20-minute intravenous",2030 ng/mL
same,Cmax,"[6]; cynomolgus, Cyno monkey, 10 mg/kg [14C]-Compound 1, oral",254 ng/mL
same,bioavailability,"[6]; cynomolgus, oral, [14C]-Compound 1, 10 mg/kg orally vs 5 mg/kg iv infusion, read-out: Oral bioavailability",~30%
same,AUC(0-inf),"[6]; cynomolgus, po, 10 mg/kg orally",969 ng·h/mL
same,half-life,"[6]; cynomolgus, po, 10 mg/kg orally, read-out: half-life, unchanged parent (converted)",1.9 h
same,Ki,a6/a3b2b3,0.24 µM
same,efficacy in clinical studies,[7],failed to reach efficacy endpoints
same,safety in clinical studies,[7],considered safe
same,"mutagenicity, micronucleus test",mouse lymphoma cells,negative
same,"mutagenicity, bone marrow micronucleus test",rat bone marrow,negative
same,"respiratory rate, minute volume, peak inspiratory flow",respiratory parameters; 100 mg/kg po,"Transient adverse effects; also recorded: shortlasting increase in respiratory rate,"
same,respiratory parameters,respiratory parameters; 10 and 30 mg/kg po,10 and 30 mg/kg did not cause changes
same,tidal volume and index of airway resistance,respiratory parameters; 5 hour observation period,There were no changes in tidal volume and
same,"NOEL, respiratory",respiratory parameters; po,The NOEL was 30 mg/kg.
same,half-life,[8],1.3 to 4.2 h
same,other findings,[9]; 5 mg/kg po,5 mg/kg produced no other findings.
same,ventricular extrasystole 10 to 25 minutes after dosing,[9]; 10 mg/kg po,10 mg/kg was associated with 1
same,emesis,[9]; 20 mg/kg po,emesis were noted at 20 mg/kg.
same,lengthening of the QT interval,[9]; 20 mg/kg po,"slight lengthening; also recorded: after dosing. In addition, slight"
same,ventricular extrasystole 10 to 25 minutes after dosing,[9]; 20 mg/kg po,20 mg/kg was associated with 1
same,PQ interval,[9]; [14],"tachycardia, and decreased PQ interval."
same,"QRS duration, QT interval, body temperature",[9]; [14],There were no changes in the QRS
same,accumulation after repeat dosing (TK),[9]; [14],sexes. No accumulation was observed after
same,tachycardia,[9]; [14],"pressure (mainly diastolic), marked"
same,dose proportionality of Cmax and AUC (TK),"[9]; 2.5, 5, 10 mg/kg po, either sampling day",TK: There were no proportional increases
same,increase in blood pressure and bursts of sinus tachycardia,"[9]; 5, 10, 20 mg/kg po, all dogs",Compound 1 produced a transient and slight
same,emesis shortly after dosing,[9]; all doses,exhibited emesis
same,systolic and diastolic blood pressure and heart rate,[9]; oral doses up to 10 mg/kg,non-dose dependent increase
